# Source: patent US11787796B2, “Plasma Kallikrein inhibitors and uses thereof” (Takeda Pharmaceutical Company Limited, priority 2019, dated 2023)
# Target: human activated kallikrein enzyme (Homo sapiens (Human), UniProt P03952)
# Test: Plasma kallikrein inhibition assay with fluorogenic peptide substrate, 500 pM activated kallikrein format
# Type: biochemical
# Settings: 500 pM activated kallikrein; 300 uM Pro-Phe-Arg-7-amido-4-methylcoumarin substrate; 30 min preincubation, 10 min reaction at RT; read-out: Primary Dose Response Assay: Average EC50
# Protocol: Example compounds were evaluated for inhibition of the human activated kallikrein enzyme in two formats of an assay employing a fluorogenic peptide substrate. In one assay format, the concentrations of reagents were as follows: 20 mM Tris pH 7.5, 1 mM EDTA, 150 mM sodium chloride, 0.1% PEG-400, 0.1% Triton X-100, […], 300 uM Pro-Phe-Arg-7-amido-4-methylcoumarin substrate. Prior to reaction initiation with substrate, enzyme and inhibitors were preincubated for 30 min at RT. After initiation with substrate, reactions were incubated for 10 min at RT and fluorescence emission at 460 nm from 380 nm excitation measured with a microplate reader. In another assay format, the concentrations of reagents were as follows: 20 mM Tris pH 7.5, 1 mM EDTA, 150 mM sodium chloride, 0.1% PEG-400, 0.1% Triton X-100, 5 pM activated kallikrein enzyme, 300 uM Pro-Phe-Arg-7-amido-4-methylcoumarin substrate. Prior to reaction initiation with substrate, enzyme and inhibitors were preincubated for 30 min at RT. After initiation with substrate, reactions were incubated for 18 h at RT and fluorescence emission at 460 nm from 380 nm excitation measured with a microplate reader.
# Table II provides the results of the assay in the format with 500 pM activated kallikrein assay.
# Table III provides comparative plasma kallikrein inhibition potency in the assay format with 500 pM activated kallikrein assay (described in detail in the preceding example).
# Chain of human activated kallikrein enzyme (P03952 391-638): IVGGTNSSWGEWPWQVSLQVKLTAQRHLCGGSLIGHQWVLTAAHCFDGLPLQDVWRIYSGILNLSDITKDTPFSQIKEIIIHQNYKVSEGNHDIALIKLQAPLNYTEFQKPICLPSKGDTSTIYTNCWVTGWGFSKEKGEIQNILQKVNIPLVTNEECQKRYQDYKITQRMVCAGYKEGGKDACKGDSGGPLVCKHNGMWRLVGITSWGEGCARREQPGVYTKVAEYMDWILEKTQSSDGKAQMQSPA
# Chain of human activated kallikrein enzyme (P03952 20-390 partner): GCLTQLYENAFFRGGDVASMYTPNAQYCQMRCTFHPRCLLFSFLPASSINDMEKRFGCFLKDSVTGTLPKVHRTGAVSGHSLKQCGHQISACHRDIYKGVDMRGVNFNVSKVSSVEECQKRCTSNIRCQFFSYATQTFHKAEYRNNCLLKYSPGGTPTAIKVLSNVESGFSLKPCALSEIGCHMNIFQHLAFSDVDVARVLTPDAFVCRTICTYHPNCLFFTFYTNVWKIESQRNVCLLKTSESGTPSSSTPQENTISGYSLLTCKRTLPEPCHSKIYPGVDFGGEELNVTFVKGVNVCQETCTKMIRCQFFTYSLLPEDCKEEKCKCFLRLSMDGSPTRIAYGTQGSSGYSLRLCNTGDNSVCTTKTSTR
row,EC50 [µM],SMILES
1,≤ 0.001,"COc1ccc(-n2cc(Cl)nn2)c(CNC(=O)c2cn(Cc3cn4cc(C5CC5)ccc4n3)nn2)c1F [Example I-1, N-(6-(4-chloro-1H-1,2,3-triazol-1-yl)-2-fluoro-3-methoxybenzyl)-1-((6-cyclopropylimidazo[1,2-a]pyridin-2-yl)methyl)-1H-1,2,3-triazole-4-carboxamide]"
2,0.001 to 0.01,"COc1ccc(-n2cnnn2)c(CNC(=O)c2cc3n(n2)CCC3c2cn3cc(C4CC4)ccc3n2)c1F (stereo not shown) [Example I-2, 4-(6-cyclopropylimidazo[1,2-a]pyridin-2-yl)-N-(2-fluoro-3-methoxy-6-(1H-tetrazol-1-yl)benzyl)-5,6-dihydro-41-pyrrolo[1,2-b]pyrazole-2-carboxamide]"
3,0.01 to 0.1,"O=C(NCc1cc(Cl)ccc1-n1cc(Cl)nn1)c1cn(Cc2cn3cc(C4CC4)ccc3n2)nn1 [Example I-3, N-(5-chloro-2-(4-chloro-1H-1,2,3-triazol-1-yl)benzyl)-1-((6-cyclopropylimidazo[1,2-a]pyridin-2-yl)methyl)-1H-1,2,3-triazole-4-carboxamide]"
4,0.001 to 0.01,"COc1ccc(-n2cnnn2)c(CNC(=O)c2nc3n(n2)CCC3c2cn3cc(C4CC4)ccc3n2)c1F (stereo not shown) [Example I-4, 7-(6-cyclopropylimidazo[1,2-a]pyridin-2-yl)-N-(2-fluoro-3-methoxy-6-(1H-tetrazol-1-yl)benzyl)-6,7-dihydro-5H-pyrrolo[1,2-b][1,2,4]triazole-2-carboxamide]"
5,0.01 to 0.1,"COc1ccnc(CNC(=O)c2cn3c(n2)CCC3c2cn3cc(C4CC4)ccc3n2)c1F (stereo not shown) [Example I-5, 5-(6-cyclopropylimidazo[1,2-a]pyridin-2-yl)-N-((3-fluoro-4-methoxypyridin-2-yl)methyl)-6,7-dihydro-5H-pyrrolo[1,2-a]imidazole-2-carboxamide]"
6,> 7.1,"COc1ccnc(CNC(=O)c2cnc3n2C(c2cn4cc(C5CC5)ccc4n2)CC3)c1F (stereo not shown) [Example I-6, 5-(6-cyclopropylimidazo[1,2-a]pyridin-2-yl)-N-((3-fluoro-4-methoxypyridin-2-yl)methyl)-6,7-dihydro-5H-pyrrolo[1,2-a]imidazole-3-carboxamide]"
7,0.01 to 0.1,"COc1ccnc(CNC(=O)c2cn(Cc3cn4cc(C5CC5)ccc4n3)nn2)c1F [Example I-7, 1-((6-cyclopropylimidazo[1,2-a]pyridin-2-yl)methyl)-N-((3-fluoro-4-methoxypyridin-2-yl)methyl)-1H-1,2,3-triazole-4-carboxamide]"
8,0.001 to 0.01,"COc1ccc(F)c(CNC(=O)c2cn(Cc3cn4cc(C5CC5)cc(COCCN(C)C)c4n3)nn2)c1F [Example I-8, 1-((6-cyclopropyl-8-((2-(dimethylamino)ethoxy)methyl)imidazo[1,2-a]pyridin-2-yl)methyl)-N-(2,6-difluoro-3-methoxybenzyl)-1H-1,2,3-triazole-4-carboxamide]"
9,0.01 to 0.1,"COc1ccc(-n2cnnn2)c(CNC(=O)c2cn3c(n2)OCC3c2cn3cc(C4CC4)ccc3n2)c1F (stereo not shown) [Example I-9, 3-(6-cyclopropylimidazo[1,2-a]pyridin-2-yl)-N-(2-fluoro-3-methoxy-6-(1H-tetrazol-1-yl)benzyl)-2,3-dihydroimidazo[2,1-b]oxazole-6-carboxamide]"
10,≤ 0.001,"NCc1cc(C2CC2)cn2cc(Cn3cc(C(=O)NC4CCc5c4ccnc5N)nn3)nc12 (stereo not shown) [Example I-10, N-(1-amino-6,7-dihydro-5H-cyclopenta[c]pyridin-5-yl)-1-((8-(aminomethyl)-6-cyclopropylimidazo[1,2-a]pyridin-2-yl)methyl)-1H-1,2,3-triazole-4-carboxamide]"
11,> 7.1,"O=C(NCc1cc2c(Cl)nccc2s1)c1cn(Cc2cn3cc(C4CC4)ccc3n2)nn1 [Example I-11, N-((4-chlorothieno[3,2-c]pyridin-2-yl)methyl)-1-((6-cyclopropylimidazo[1,2-a]pyridin-2-yl)methyl)-1H-1,2,3-triazole-4-carboxamide]"
12,0.001 to 0.01,"COc1ccc(F)c(CNC(=O)c2cn(Cc3cn4cc(C5CC5)cc(CC(C)(C)C#N)c4n3)nn2)c1F [Example I-12, 1-((8-(2-cyano-2-methylpropyl)-6-cyclopropylimidazo[1,2-a]pyridin-2-yl)methyl)-N-(2,6-difluoro-3-methoxybenzyl)-1H-1,2,3-triazole-4-carboxamide]"
13,0.001 to 0.01,"COc1ccc(F)c(CNC(=O)c2cn(Cc3cn4cc(C5CC5)cc(CN)c4n3)nn2)c1F [Example I-13, 1-((8-(aminomethyl)-6-cyclopropylimidazo[1,2-a]pyridin-2-yl)methyl)-N-(2,6-difluoro-3-methoxybenzyl)-1H-1,2,3-triazole-4-carboxamide]"
14,0.001 to 0.01,"N#Cc1cc(C2CC2)cn2cc(Cn3cc(C(=O)NC4CCc5c4ccnc5N)nn3)nc12 (stereo not shown) [Example I-14, N-(1-amino-6,7-dihydro-5H-cyclopenta[c]pyridin-5-yl)-1-((8-cyano-6-cyclopropylimidazo[1,2-a]pyridin-2-yl)methyl)-1H-1,2,3-triazole-4-carboxamide]"
15,0.1 to 2,"COc1ccc(-n2cnnn2)c(CNC(=O)c2c(C)nn(Cc3cn4cc(C5CC5)ccc4n3)c2C)c1F [Example I-15, 1-((6-cyclopropylimidazo[1,2-a]pyridin-2-yl)methyl)-N-(2-fluoro-3-methoxy-6-(1H-tetrazol-1-yl)benzyl)-3,5-dimethyl-1H-pyrazole-4-carboxamide]"
16,≤ 0.001,"Cc1cc2c(c(N)n1)CCC2NC(=O)c1cn(Cc2cn3cc(C4CC4)ccc3n2)nn1 (stereo not shown) [Example I-16, N-(1-amino-3-methyl-6,7-dihydro-5H-cyclopenta[c]pyridin-5-yl)-1-((6-cyclopropylimidazo[1,2-a]pyridin-2-yl)methyl)-1H-1,2,3-triazole-4-carboxamide]"
17,≤ 0.001,"COc1ccc(-n2cnnn2)c(CNC(=O)c2cn(Cc3cn4cc(C5CC5)cc(COCCN)c4n3)nn2)c1F [Example I-17, 1-((8-((2-aminoethoxy)methyl)-6-cyclopropylimidazo[1,2-a]pyridin-2-yl)methyl)-N-(2-fluoro-3-methoxy-6-(1H-tetrazol-1-yl)benzyl)-1H-1,2,3-triazole-4-carboxamide]"
18,0.1 to 2,"Nc1ncc(CNC(=O)c2cn(Cc3cn4cc(C5CC5)ccc4n3)nn2)s1 [Example I-18, N-((2-aminothiazol-5-yl)methyl)-1-((6-cyclopropylimidazo[1,2-a]pyridin-2-yl)methyl)-1H-1,2,3-triazole-4-carboxamide]"
19,2 to 7.1,"Nc1nnc(CNC(=O)c2cn(Cc3cn4cc(C5CC5)ccc4n3)nn2)o1 [Example I-19, N-((5-amino-1,3,4-oxadiazol-2-yl)methyl)-1-((6-cyclopropylimidazo[1,2-a]pyridin-2-yl)methyl)-1H-1,2,3-triazole-4-carboxamide]"
20,2 to 7.1,"Nc1nnc(CNC(=O)c2cn(Cc3cn4cc(C5CC5)ccc4n3)nn2)s1 [Example I-20, N-((5-amino-1,3,4-thiadiazol-2-yl)methyl)-1-((6-cyclopropylimidazo[1,2-a]pyridin-2-yl)methyl)-1H-1,2,3-triazole-4-carboxamide]"
21,2 to 7.1,"Nc1nnc(CNC(=O)c2cn(Cc3cn4cc(C5CC5)ccc4n3)nn2)[nH]1 [Example I-21, N-((5-amino-4H-1,2,4-triazol-3-yl)methyl)-1-((6-cyclopropylimidazo[1,2-a]pyridin-2-yl)methyl)-1H-1,2,3-triazole-4-carboxamide]"
22,≤ 0.001,"COc1ccc(-n2cnnn2)c(CNC(=O)c2cn3c(n2)CCC3c2cn3cc(C4CC4)ccc3n2)c1F (stereo not shown) [Example I-22, 5-(6-cyclopropylimidazo[1,2-a]pyridin-2-yl)-N-(2-fluoro-3-methoxy-6-(1H-tetrazol-1-yl)benzyl)-6,7-dihydro-5H-pyrrolo[1,2-a]imidazole-2-carboxamide]"
23,≤ 0.001,"Nc1nccc2c1CCC2NC(=O)c1cn(Cc2cn3cc(C4CC4)ccc3n2)nn1 (stereo not shown) [Example I-23, N-(1-amino-6,7-dihydro-5H-cyclopenta[c]pyridin-5-yl)-1-((6-cyclopropylimidazo[1,2-a]pyridin-2-yl)methyl)-1H-1,2,3-triazole-4-carboxamide]"
24,2 to 7.1,"COc1ccc(-n2cnnn2)c(CNC(=O)c2cnc3n2C(c2cn4cc(C5CC5)ccc4n2)CC3)c1F (stereo not shown) [Example I-24, 5-(6-cyclopropylimidazo[1,2-a]pyridin-2-yl)-N-(2-fluoro-3-methoxy-6-(1H-tetrazol-1-yl)benzyl)-6,7-dihydro-5H-pyrrolo[1,2-a]imidazole-3-carboxamide]"
25,≤ 0.001,"COc1ccc(-n2cnnn2)c(CNC(=O)c2cn(Cc3cn4cc(C5CC5)cc(CN)c4n3)nn2)c1F [Example I-25, 1-((8-(aminomethyl)-6-cyclopropylimidazo[1,2-a]pyridin-2-yl)methyl)-N-(2-fluoro-3-methoxy-6-(1H-tetrazol-1-yl)benzyl)-1H-1,2,3-triazole-4-carboxamide]"

# Same assay, conditions: comparative compounds (Table III); 500 pM activated kallikrein format; read-out: Primary Dose Response Assay: Average EC50
row,EC50 [µM],SMILES
1,0.01 to 0.1,O=C(NCc1ncn2ccc(Cl)c(F)c12)c1cn(Cc2ccc3nccnc3c2)nn1
2,0.01 to 0.1,O=C(NCc1ncn2ccc(Cl)c(F)c12)c1cn(Cc2cn3ccccc3n2)nn1
3,> 7.1,NC(=O)c1cnn(Cc2cn3cc(C4CC4)ccc3n2)c1
